Laboratory results reported in PMC12498288 (Frontiers in Immunology, 2025).
“And” between values parts separate entries of the source, which are not always exact repeats. Identical values can stand only once. Like-named read-outs stand apart in the source and are kept apart here.

Key:
HCoV OC43 = assay: Virus yield reduction assay, HCoV-OC43 on MRC-5 cells (RT-qPCR); type: cell-based; conditions: Betacoronavirus 1, OC43, MRC5, MOI 0.1, 24 h
Protocol: The virus yield reduction assay of HCoV-229E and HCoV-OC43 was performed on MRC-5 cells seeded at 1.5x10^5 cells per well in 24-well plates 24 h prior infection with HCoV-229E (MOI 0.001) or HCoV-OC43 (MOI 0.1) for 1 h. The inoculum was completely removed, and the cells were treated with different concentrations of zapnometinib (50 µM to 0.006 µM) and a solvent control in Iscove’s Modified Dulbecco’s Medium (IMDM) containing 2% FBS, 1% Penicillin/Streptomycin at 34°C, 5% CO2 for 24 h (HCoV-OC43) or 48 h (HCoV-229E). Supernatants were harvested and the viral titer was determined by a real-time one-step multiplex RT-qPCR using specific primers targeting the N and NS2 genes for HCoV-229E and HCoV-OC43 respectively ( Supplementary Table 1 ) EC50 values were calculated based on the measured viral titers normalized to the solvent control (1% DMSO) and using the “log(inhibitor) vs. response - Variable slope (four parameters)” analysis in GraphPad Prism v9.

[1] = tested on: cytokine and chemokine gene expression; assay: LPS-induced acute lung injury (ALI) mouse model, lung cytokine/chemokine mRNA (RT2 profiler PCR array)
[2] = design: method as in NCT04385420; EudraCT 2021-005225-25; conditions: two phase 1 studies in healthy volunteers, ref NCT04385420; EudraCT 2021-005225-25; cited from earlier work
[3] = design: method as in PMID 38106555; conditions: hospitalized COVID-19 patients; cited from earlier work
human PBMCs = assay: Cytokine and chemokine levels in LPS-stimulated human PBMCs (ELISA); type: cell-based; conditions: 1 µg/mL LPS, 10 µg/mL zapnometinib, 6 h, vs untreated control
Protocol: Human peripheral blood mononuclear cells (PBMCs) were isolated from healthy volunteers registered with the Biobank of the Department of Immunology at the University of Tuebingen, after informed consent documented in writing. Ethical approval was obtained upon review by the Ethics Board of the Medical Faculty of the Eberhard Karls University Tuebingen and the University Hospital Tuebingen (887/2020BO2). Briefly, 50 ml whole blood (roughly 5x10^7 PBMCs) of two donors were taken in 50 ml syringes (BD Biosciences, Franklin Lakes, New Jersey, USA) supplied with heparin-natrium (100.000 I.E./ml; Braun, Melsungen, Germany). The whole blood was mixed with PBS (Gibco, Carlsbad, California, USA) in a 1:1 ratio in 50 ml tubes (Greiner Bio-One, Frickenhausen, Germany), and PBMCs were subsequently isolated from the whole blood by density gradient centrifugation using Histopaque®-1077 (Sigma-Aldrich, St. Louis, Missouri, USA) as density gradient medium. Five millilitres of plasma per donor were preserved for cell culture medium preparation. The PBMCs were then purified by washing them twice with PBS.
2x10^6 human PBMCs from two donors each were suspended in 1 mL RPMI 1640 medium (Gibco) containing 5% autologous plasma, 1% penicillin/streptomycin (Sigma-Aldrich), and 1% L-glutamine (Sigma-Aldrich) and were treated with 1 μg/mL LPS from E. coli O55:B5 (prepared in PBS) and 10 μg/mL zapnometinib (prepared in DMSO and diluted in cell culture medium to a final concentration of 0.1% DMSO) for 6 h at 37°C and 5% CO2. The supernatants (cell culture medium) were collected and stored at -20°C until analysis by ELISA. Ready-to-use ELISA kits (Invitrogen, Waltham, Massachusetts, USA) were used according to the manufacturer’s instructions to determine the levels of the following cytokines: IL-1β, IL-6, IL-8, IP-10, MCP-1, MIP-1α, and TNF-α. Briefly, the samples and standards were applied to ELISA plates pre-coated with specific antibodies targeting the cytokines of interest. Biotinylated detection antibodies binding to the cytokines of interest were added to the wells followed by a horseradish peroxidase (HRP)-streptavidin conjugate, which binds to the biotinylated detection antibodies. Unbound cytokines, detection antibodies, and HRP-streptavidin conjugate were removed by washing. Tetramethylbenzidine (TMB) substrate was added, and the color change in the wells served as the readout for the ELISA. Optical density (OD) at 450 nm was measured using a SpectraMAX Plus 384 microplate reader. For IL-1β, IL-8, MCP-1, and TNF-α the OD was also read at a reference wavelength of 620 nm, and for IL-6 at a reference wavelength of 550 nm. For IP-10 and MIP-1α no reference wavelength was used. Cytokine and chemokine concentrations were calculated following the manufacturer’s instructions for interpolating unknown concentrations from a standard curve.

Vero E6 cells = conditions: Vero E6 24 h 5% FBS

With `O=C(O)c1ccc(F)c(F)c1Nc1ccc(I)cc1Cl` [zapnometinib] as the compound, how does the EC50 (HCoV OC43) read?
Its EC50 is 16.1 µM and 6.6 µg/mL.

What about the “expression of most of the 84 genes (e.g. Il1b, IL-6, ccl2, cxcl1, cxcl10, ccl3)” value ([1]; 5 mg/kg LPS i.p., 25 mg/kg p.o. 1 h post-stimulation, lung, 6 h post treatment, vs control) of the same compound?
The value was “downregulated”.

And the “Cxcl1 gene expression in lung tissue” value ([1]; 25 mg/kg p.o. 1 h after LPS)?
The value was “significantly reduced”.

And the “Il6 gene expression in lung tissue” value ([1]; 25 mg/kg p.o. 1 h after LPS)?
The value was “significantly reduced”.

And the “Tnf gene expression in lung tissue” value ([1]; 25 mg/kg p.o. 1 h after LPS)?
Its value is “significantly reduced”.

And the “Ifna2 gene (IFN-α) expression” value ([1]; 25 mg/kg p.o. 1 h after LPS, lung, p = 0.118)?
Its value is “not significantly downregulated”.

What about the “toxicity and tolerability in humans” value [2] of the same compound?
Its value is “showed no toxicity and was well tolerated”.

What about the safety and tolerability [3] of the same compound?
The safety and tolerability was “safe and well-tolerated”.

What about the IL-1β expression level (human PBMCs) of the same compound?
The IL-1β expression level was “significantly reduced”.

And the IL-6 expression level (human PBMCs)?
The IL-6 expression level was “significantly reduced”.

What about the IL-8 expression level (human PBMCs) of the same compound?
Its IL-8 expression level is “significantly reduced”.

And the IP-10 expression level (human PBMCs)?
The IP-10 expression level was “significantly reduced”.

And the MCP-1 expression level (human PBMCs)?
Its MCP-1 expression level is “significantly reduced”.

And the MIP-1α expression level (human PBMCs)?
The MIP-1α expression level was “significantly reduced”.

What about the TNF-α expression level (human PBMCs) of the same compound?
Its TNF-α expression level is “significantly reduced”.

And the “%LDH release compared to maximum LDH release” value (shortened to “%LDH release”) (Vero E6 cells; 0.39 µM)?
The value was 0.22%.

What about the “%LDH release” value (Vero E6 cells; 0.78 µM) of the same compound?
The value was 0.17%.

And the “%LDH release” value (Vero E6 cells; 1.56 µM)?
Its value is 0.15%.

What about the “%LDH release” value (Vero E6 cells; 3.13 µM) of the same compound?
Its value is 0.39%.

And the “%LDH release” value (Vero E6 cells; 6.25 µM)?
Its value is 0.13%.

And the “%LDH release” value (Vero E6 cells; 12.50 µM)?
Its value is 0.09%.

What about the “%LDH release” value (Vero E6 cells; 25.00 µM) of the same compound?
Its value is -0.04%.

And the “%LDH release” value (Vero E6 cells; 50.00 µM)?
Its value is 0.02%.

And the “%LDH release” value (Vero E6 cells; 75.00 µM)?
Its value is 0.24%.

What about the “%LDH release” value (Vero E6 cells; 100.00 µM) of the same compound?
Its value is 0.26%.
